Test results reported in BigSolDB 2.1.

NC(=O)c1cnccn1
solubility (mole fraction)
Conditions | 278.15 K | 283.15 K | 288.15 K | 293.15 K | 298.15 K | 303.15 K | 308.15 K | 313.15 K | 318.15 K | 323.15 K
in acetone | 0.00249 | 0.00304 | 0.00357 | 0.00424 | 0.00495 | 0.00574 | 0.00674 | 0.00784 | 0.00897 | 0.00975
in acetonitrile | 0.00125 | 0.00162 | 0.00205 | 0.00248 | 0.00294 | 0.00351 | 0.0042 | 0.00497 | 0.0058 | 0.00633
in ethyl acetate | 0.0016 | 0.00219 | 0.0024 | 0.00312 | 0.0035 | 0.00416 | 0.00475 | 0.00581 | 0.00666 | 0.00775
in isopropanol | 0.000619 | 0.000973 | 0.00136 | 0.00181 | 0.00224 | 0.00279 | 0.00365 | 0.00466 | 0.00574 | 0.00692
in methanol | 0.00208 | 0.00265 | 0.00328 | 0.00384 | 0.0047 | 0.00563 | 0.0071 | 0.00828 | 0.01 | –
in n-butanol | 0.000772 | 0.00116 | 0.00148 | 0.00192 | 0.00237 | 0.00309 | 0.00396 | 0.00512 | 0.00623 | 0.00731
in n-propanol | 0.000775 | 0.00123 | 0.00145 | 0.00179 | 0.00245 | 0.00297 | 0.00394 | 0.00503 | 0.00616 | 0.00707
in sec-butanol | 0.00053 | 0.00081 | 0.00108 | 0.0015 | 0.00188 | 0.00252 | 0.00332 | 0.00434 | 0.00564 | 0.00696
in water | 0.00105 | 0.00131 | 0.00168 | 0.00194 | 0.0024 | 0.00284 | 0.00362 | 0.00421 | 0.00521 | 0.006
